Measured values as given in paper PMC3914206.

Tests used:
panel of 442 kinases [1] = biological target: T1, panel of 442 kinases (Homo sapiens, UniProt P00519, F317L); type: binding; parameters: KINOMEscan: ABL1(F317L)-phosphorylated / KINOMEscan: ABL1(H396P)-nonphosphorylated / KINOMEscan: ABL1(H396P)-phosphorylated / KINOMEscan: ABL1(M351T)-phosphorylated / KINOMEscan: ABL1(T315I)-phosphorylated / KINOMEscan: ABL1-nonphosphorylated / KINOMEscan: ABL1-phosphorylated / KINOMEscan: ACVR2A / KINOMEscan: ACVR2B / KINOMEscan: ADCK3 / KINOMEscan: ADCK4 / KINOMEscan: AKT1 / KINOMEscan: AKT3 / KINOMEscan: ALK / KINOMEscan: ARK5 / KINOMEscan: AURKA / KINOMEscan: AURKC / KINOMEscan: BIKE / KINOMEscan: BMPR1A / KINOMEscan: BMPR1B / KINOMEscan: BMX / KINOMEscan: BRK / KINOMEscan: BRSK1 / KINOMEscan: BRSK2 / KINOMEscan: CAMK1 / KINOMEscan: CAMK1D / KINOMEscan: CAMK1G / KINOMEscan: CAMK2A / KINOMEscan: CAMK2B / KINOMEscan: AAK1 / KINOMEscan: CAMK2D / KINOMEscan: CAMK2G / KINOMEscan: ABL1(F317I)-nonphosphorylated / KINOMEscan: ABL1(F317I)-phosphorylated / KINOMEscan: ABL1(F317L)-nonphosphorylated: unit: % Ctrl; conditions: Compound Concentration 10 µM
T1 construct: purchased KINOMEscan
Description: (§1) We assessed the selectivity of members of this scaffold using the KINOMEscan methodology across a near comprehensive panel of 442 kinases [[18,27]].

panel of 442 kinases [2] = biological target: T2, panel of 442 kinases (Homo sapiens, UniProt Q96L34); type: binding; parameters: KINOMEscan: ABL1(F317L)-phosphorylated / KINOMEscan: ABL1(H396P)-nonphosphorylated / KINOMEscan: ABL1(H396P)-phosphorylated / KINOMEscan: ABL1(M351T)-phosphorylated / KINOMEscan: ABL1(T315I)-phosphorylated / KINOMEscan: ABL1-nonphosphorylated / KINOMEscan: ABL1-phosphorylated / KINOMEscan: ACVR2A / KINOMEscan: ACVR2B / KINOMEscan: ADCK3 / KINOMEscan: ADCK4 / KINOMEscan: AKT1 / KINOMEscan: AKT3 / KINOMEscan: ALK / KINOMEscan: ARK5 / KINOMEscan: AURKA / KINOMEscan: AURKC / KINOMEscan: BIKE / KINOMEscan: BMPR1A / KINOMEscan: BMPR1B / KINOMEscan: BMX / KINOMEscan: BRK / KINOMEscan: BRSK1 / KINOMEscan: BRSK2 / KINOMEscan: CAMK1 / KINOMEscan: CAMK1D / KINOMEscan: CAMK1G / KINOMEscan: CAMK2A / KINOMEscan: CAMK2B / KINOMEscan: AAK1 / KINOMEscan: CAMK2D / KINOMEscan: CAMK2G / KINOMEscan: ABL1(F317I)-nonphosphorylated / KINOMEscan: ABL1(F317I)-phosphorylated / KINOMEscan: ABL1(F317L)-nonphosphorylated: unit: % Ctrl; conditions: Compound Concentration 10 µM
T2 construct: purchased KINOMEscan
T2 sequence (Q96L34 1-752): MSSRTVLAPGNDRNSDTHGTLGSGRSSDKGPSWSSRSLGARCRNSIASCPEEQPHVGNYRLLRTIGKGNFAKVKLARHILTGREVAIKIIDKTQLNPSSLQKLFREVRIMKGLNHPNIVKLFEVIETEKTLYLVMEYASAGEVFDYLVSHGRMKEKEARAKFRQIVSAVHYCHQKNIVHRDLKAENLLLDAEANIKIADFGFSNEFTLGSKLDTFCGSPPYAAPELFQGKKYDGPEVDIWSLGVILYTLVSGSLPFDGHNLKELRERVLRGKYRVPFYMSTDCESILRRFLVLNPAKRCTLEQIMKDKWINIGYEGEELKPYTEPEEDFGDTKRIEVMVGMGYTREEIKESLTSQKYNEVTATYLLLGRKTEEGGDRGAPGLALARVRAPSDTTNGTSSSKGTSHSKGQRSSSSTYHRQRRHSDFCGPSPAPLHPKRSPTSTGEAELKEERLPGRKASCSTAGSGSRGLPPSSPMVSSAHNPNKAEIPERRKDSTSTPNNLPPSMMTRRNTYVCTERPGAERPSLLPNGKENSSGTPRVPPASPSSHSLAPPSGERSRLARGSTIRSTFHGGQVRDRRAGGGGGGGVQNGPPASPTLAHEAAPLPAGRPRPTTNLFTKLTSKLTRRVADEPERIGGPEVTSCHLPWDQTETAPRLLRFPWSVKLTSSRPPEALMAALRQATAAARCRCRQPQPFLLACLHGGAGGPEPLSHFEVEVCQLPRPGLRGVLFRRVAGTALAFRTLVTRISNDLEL
Description: as §1

T1 sequence (P00519 whole entry F317L): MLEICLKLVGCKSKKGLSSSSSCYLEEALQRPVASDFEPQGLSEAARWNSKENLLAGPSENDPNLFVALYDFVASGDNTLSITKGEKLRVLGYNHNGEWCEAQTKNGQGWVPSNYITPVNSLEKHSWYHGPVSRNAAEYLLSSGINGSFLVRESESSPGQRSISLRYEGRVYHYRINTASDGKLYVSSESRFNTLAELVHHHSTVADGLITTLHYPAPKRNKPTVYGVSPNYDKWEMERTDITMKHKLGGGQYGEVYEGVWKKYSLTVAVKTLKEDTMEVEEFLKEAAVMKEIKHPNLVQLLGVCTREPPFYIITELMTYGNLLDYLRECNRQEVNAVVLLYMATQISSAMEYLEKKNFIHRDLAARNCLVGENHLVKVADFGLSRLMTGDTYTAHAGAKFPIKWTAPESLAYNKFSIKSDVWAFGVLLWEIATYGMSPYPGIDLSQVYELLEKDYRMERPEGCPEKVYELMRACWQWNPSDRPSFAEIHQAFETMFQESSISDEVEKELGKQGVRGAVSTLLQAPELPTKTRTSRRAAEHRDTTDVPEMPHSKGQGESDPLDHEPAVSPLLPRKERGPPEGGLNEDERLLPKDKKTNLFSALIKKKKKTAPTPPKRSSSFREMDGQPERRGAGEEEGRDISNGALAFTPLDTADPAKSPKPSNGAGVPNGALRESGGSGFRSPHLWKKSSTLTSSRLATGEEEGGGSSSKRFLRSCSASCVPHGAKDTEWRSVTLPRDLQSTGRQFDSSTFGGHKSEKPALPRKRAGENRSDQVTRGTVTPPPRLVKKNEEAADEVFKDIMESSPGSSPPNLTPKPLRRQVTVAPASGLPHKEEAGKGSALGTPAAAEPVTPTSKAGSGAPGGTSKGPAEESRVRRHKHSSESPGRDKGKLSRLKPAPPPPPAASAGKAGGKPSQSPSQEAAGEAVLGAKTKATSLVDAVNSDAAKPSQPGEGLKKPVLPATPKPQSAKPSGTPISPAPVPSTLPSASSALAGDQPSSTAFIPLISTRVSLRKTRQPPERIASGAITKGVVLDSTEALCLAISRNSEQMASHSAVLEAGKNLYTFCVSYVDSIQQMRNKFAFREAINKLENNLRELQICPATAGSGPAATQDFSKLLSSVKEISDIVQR

COc1cc(C(=O)N2CCC(N3CCN(C)CC3)CC2)ccc1Nc1ncc2c(n1)N1CCc3cccc(c31)C(=O)N2C [Compound 24]
KINOMEscan: ABL1(F317L)-nonphosphorylated (panel of 442 kinases [1]): 23 | KINOMEscan: ABL1(F317L)-phosphorylated (panel of 442 kinases [1]): 7.8 | KINOMEscan: MARK4 (panel of 442 kinases [2]): 87

CCOc1cc(C(=O)N2CCC(N3CCN(C)CC3)CC2)ccc1Nc1ncc2c(n1)N(C1CCCC1)c1ccccc1C(=O)N2C [Compound 26]
KINOMEscan: ABL1(F317L)-nonphosphorylated (panel of 442 kinases [1]): 71 | KINOMEscan: ABL1(F317L)-phosphorylated (panel of 442 kinases [1]): 34 | KINOMEscan: MARK4 (panel of 442 kinases [2]): 100

COc1cc(C(=O)N2CCC(N3CCN(C)CC3)CC2)ccc1Nc1ncc2c(n1)N(C1CCCC1)c1ccccc1C(=O)N2C [Compound 25, 11-cyclopentyl-2-((2-methoxy-4-(4-(4-methylpiperazin-1-yl)piperidine-1-carbonyl)phenyl)amino)-5-methyl-5H-benzo[e]pyrimido[5,4-b][1,4]diazepin-6(11H)-one]
KINOMEscan: ABL1(F317L)-nonphosphorylated (panel of 442 kinases [1]): 15 | KINOMEscan: ABL1(F317L)-phosphorylated (panel of 442 kinases [1]): 9.1 | KINOMEscan: MARK4 (panel of 442 kinases [2]): 100

COc1cc(C(=O)N2CCC(N3CCN(C)CC3)CC2)ccc1Nc1ncc2c(n1)N(C)c1ccccc1C(=O)N2C [15 (LRRK2-IN-1)]
KINOMEscan: ABL1(F317L)-nonphosphorylated (panel of 442 kinases [1]): 14 | KINOMEscan: ABL1(F317L)-phosphorylated (panel of 442 kinases [1]): 0.85 | KINOMEscan: MARK4 (panel of 442 kinases [2]): 78
